According to patent US5110927A (The United States of America as represented by the …, priority 1987, dated 1992):

Tests used:
[1] = target: α1-adrenoceptor (3H-prazosin binding sites); assay: displacement of 3H-prazosin from rat cerebral cortical (brain) membranes; settings: 3H-prazosin displacement, rat cerebral cortical membranes
Method: IC50 values and apparent Ki values were determined as in Table 1.
Rat brain cortices were homogenized in approximately 30 volumes/wet weight of 50 mM Tris buffer, pH 7.4, containing 10 mM MgCl2 by use of a Polytron (setting 6 for 10 seconds). It should be noted that this buffer was used throughout the experimental procedures. The homogenate was centrifuged at 48,000×g for 10 minutes in a Sorvall RC-5B centrifuge. The resulting pellet was resuspended in buffer by use of a Polytron and recentrifuged. This process was repeated and the pellet was resuspended in approximately 200 volumes for affinity studies or 20 volumes for irreversibility experiments.
Specific binding was defined as the difference between total binding (measured in the absence of any ligand) and non-specific binding (measured in the presence of 10 microM phentolamine). Duplicate tubes were used for each condition. Reaction tubes were incubated for 30 minutes at 30° C., then diluted to 5 ml with ice cold buffer, and filtered under reduced pressure through Whatman GF/C glass fiber filters. The reaction tubes and filters were washed three additional times with buffer.

[2] = tested on: α1-adrenoceptor (3H-prazosin binding sites); assay: irreversibility experiment: membranes preincubated with compound, washed, assayed for saturation of 3H-prazosin binding; set-up: species or system rat; settings: for irreversible blockade / effect on 3H-prazosin binding sites (in words): membranes, preincubation and washing
[3] = tested on: spontaneously hypertensive rats; settings: conscious; previously shown; cited from earlier work
[4] = tested on: alpha1-adrenoceptors and other receptors; settings: prior art, cited from earlier work

COc1cc2nc(N3CCN(C(=O)/C=C/c4ccccc4)CC3)nc(N)c2cc1OC [Compound 9]
-logIC50 [1]: 9.16
irreversible blockade / effect on 3H-prazosin binding sites (in words) [2]: do not attach irreversibly to the receptor
reduction of blood pressure in spontaneously hypertensive rats [3]: capable of reducing blood pressure

COc1cc2nc(N3CCN(C(=O)C4=CC5CCC4CC5)CC3)nc(N)c2cc1OC [Compound 48]
-logIC50 [1]: 8.4
overall behaviour compared with compound 47 [2]: behaves similarly to 47 in those aspects which were investigated

CCOC(=O)N1c2ccccc2C=CC1OCC (stereo not drawn) [N-ethoxycarbonyl-2-ethoxy-1,2-dihydroquinoline]
concentration required relative to more specific chemoreactive labels ([4]; factor higher): about 10^4
receptor specificity (in words) [4]: receptor specificity of N-ethoxycarbonyl-2-ethoxy-1,2-dihydroquinoline is also low

CC(COc1ccccc1)N(CCCl)Cc1ccccc1 (stereo not drawn) [phenoxybenzamine, reference compound]
Kd (KD) of remaining 3H-prazosin binding sites (in words) ([2]; after preincubation and washing): without significant Kd changes in the remaining sites
blockade of 3H-prazosin binding sites by phenoxybenzamine ([2]; brain membranes, FIG. 4): approximately 85%
irreversible blockade / effect on 3H-prazosin binding sites (in words) [2]: block almost all ^3 -prazosin binding sites in brain membranes
receptor specificity (in words) [4]: not very specific

c1c[nH]c(CNCCCCCCNCCSSCCNCCCCCCNCc2ccc[nH]2)c1 [pyrextramine]
receptor specificity (in words) [4]: block peripheral alpha2 -adrenergic responses as well
